{"source": "patent US20230123585A1", "about": "“COMPOSITIONS AND METHODS FOR TREATING OR PREVENTING CANCER USING DEUBIQUITINASE INHIBITORS” (The University of Chicago, priority 2020, published 2023)", "key": {"ubiquitination of METTL3": {"test_system": "ubiquitination of METTL3", "test": "Ubiquitination of METTL3 in A375 cells transfected with HA-ubiquitin (IP anti-METTL3, immunoblot anti-HA)", "format": "cell-based, human", "conditions": "10 μM MG-132 and 10 μM EOAI3402143 or 30 μM vialinin A for 8 h", "procedure": "(§1) FIGS. 11A-11G: USP5 is Required for ERK-Mediated METTL3 Stabilization. (A) A375 cells transfected with HA-ubiquitin (ub) were treated with 10 μM MG-132 and MEK inhibitor PD0325901 for 8 h. The ubiquitination of METTL3 was detected by IP with anti-METTL3 and immunoblot with anti-HA. (B) After 8 h treatment with 10 μM PD0325901 with or without 10 μM MG-132, cell lysates from A375 cells were analyzed by immunoblot. (C) A375 cells were treated with various concentrations of PD0325901 for 1 h. Cell lysates were subjected to IP with METTL3 antibody followed by immunoblot. (D) 293T cells transfected as indicated were subjected to IP/immunoblot analysis. (E) Immunofluorescence analysis of myc-METTL3 (green) in mESC stable transfectants. DAPI (blue) was used to mark the nucleus. (F) Lysates of 293T cells transfected as indicated were subjected to IP with anti-Flag antibody followed by immunoblot. (G) Immunofluorescence analysis of 293T cells co-transfected with myc-METTL3 (green), Flag-USP5 (red) with or without constitutively active B-RAF.\nFIGS. 14A-14I: Phosphorylation of the m^6A Methyltransferase Complex May Affect Tumorigenesis. […] (B) LC-MS/MS quantification of the m^6A/A ratio in mRNA of melanoma cell lines. (C) After 8 h treatment with 10 μM PD0325901 or 0.1 μM tramentib, cell lysates from HCT-116 cells were analyzed by immunoblot. […] The ubiquitination of METTL3 was detected by IP with anti-METTL3 and immunoblot with anti-HA. (F) After 8 hr treatment with 10 μM EOAI3402143 (EOAI) or 30 μM vialinin A, cell lysates from HCT-116 cells were analyzed by immunoblot. […] (I) LC-MS/MS quantification of the m^6A/A ratio in mRNA of breast cancer cell lines.\nImmunoprecipitation, immunoblotting, and in vitro kinase assay. […] Primary antibodies were detected by HRP-linked secondary antibodies (Cell Signaling) together with SuperSignal West Pico Plus chemiluminescent substrate (Thermo Scientific) and imaged in a FluorChem R system (ProteinSimple)."}, "[1]": {"test_system": "METTL3 / m^6A methyltransferase complex in A375 cells", "test": "Immunoblot of METTL3 / m^6A methyltransferase complex protein in A375 cell lysates", "format": "cell-based, human", "conditions": "A375 cells (also HCT-116, FIG. 14F), 8 hr, 10 μM EOAI3402143 or 30 μM vialinin A", "procedure": "(§2) FIGS. 6A-6H: Phosphorylation of the m^6A Methyltransferase Complex May Affect Tumorigenesis. (A) Lysates of A375 stable transfectants harvested at different time points after treatment with cycloheximide (CHX) 10 μg/ml were analyzed by immunoblot. (B) LC-MS/MS quantification of the m^6A/A ratio in mRNA of A375 stable transfectants. (C) After 8 h treatment with 10 μM PD0325901 or 0.1 μM tramentib, cell lysates from A375 cells were analyzed by immunoblot. (D) LC-MS/MS quantification of the m^6A/A ratio in mRNA of A375 cells treated with 10 μM PD0325901 or 0.1 μM tramentib for 48 h. (E) After 8hr treatment with 10 μM EOAI3402143 (EOAI) or 30 μM vialinin A , cell lysates from A375 cells were analyzed by immunoblot. (F) A375 stable transfectants as indicated were treated with 3 μM EOAI3402143 (EOAI) or 10 μM vialinin A before measuring cell viability by SRB assay. Data are presented as relative to the R-WT cells without drug treatment (n=3 per group, data represent mean±SEM). (G) Immunofluorescence analysis of METTL3 (green) in SKBR3 cells treated with 1 μM tucatinib and 1 μM lapatinib for 8 hr. DAPI (blue) was used to mark the nucleus. (H) LC-MS/MS quantification of the m^6A/A ratio in mRNA of SKBR3 and BT474 cells treated with 1 μM tucatinib and 1 μM lapatinib for 48 h. (See also FIG. 14.)\nas §1\nImmunoprecipitation, immunoblotting, and in vitro kinase assay. Immunoprecipitation (IP) and immunoblotting (IB) were performed as previously described (Sun et al., 2016). In brief, protein samples were isolated from respective cells by lysis in RIPA buffer (1% Triton X-100, 150 mM NaCl, 20 mM Na2PO4, pH 7.4) containing Halt Protease and Phosphatase Inhibitor Cocktail (Thermo Scientific). Subsequently, a BCA assay (Thermo Scientific) was used to determine the protein concentrations. For IP, indicated antibody and protein A/G magnetic beads (Thermo Scientific) were incubated with lysate at 4° C. overnight followed by washing and elution with sample buffer. Equal amounts of protein were separated by SDS-PAGE followed by wet transfer to PVDF membranes. Blots were blocked with 5% non-fat milk or BSA and incubated with respective primary antibody at 4° C. overnight. Primary antibodies were detected by HRP-linked secondary antibodies (Cell Signaling) together with SuperSignal West Pico Plus chemiluminescent substrate (Thermo Scientific) and imaged in a FluorChem R system (ProteinSimple)."}, "[2]": {"test_system": "A375 and HCT-116 stable transfectants", "test": "Cell viability by SRB assay of A375 and HCT-116 stable transfectants treated with USP5 inhibitors", "format": "cell-based", "conditions": "A375 1 μM, HCT-116 2 μM EOAI, 48 hr", "procedure": "as §2, with “(F) A375 stable transfectants as indicated were treated with 3 μM EOAI3402143 (EOAI) or 10 μM vialinin A before measuring cell viability by SRB assay. Data are presented as relative to the R-WT cells without drug treatment (n=3 per group, data represent mean±SEM). (G) Immunofluorescence analysis of METTL3 (green) in SKBR3 cells treated with 1 μM tucatinib and 1 μM lapatinib for 8 hr. DAPI (blue) was used to mark the nucleus.” left out, “(See also FIG. 14.)” left out\nFIGS. 14A-14I: Phosphorylation of the m^6A Methyltransferase Complex May Affect Tumorigenesis. […] (B) LC-MS/MS quantification of the m^6A/A ratio in mRNA of melanoma cell lines. (C) After 8 h treatment with 10 μM PD0325901 or 0.1 μM tramentib, cell lysates from HCT-116 cells were analyzed by immunoblot. […] The ubiquitination of METTL3 was detected by IP with anti-METTL3 and immunoblot with anti-HA. (F) After 8 hr treatment with 10 μM EOAI3402143 (EOAI) or 30 μM vialinin A, cell lysates from HCT-116 cells were analyzed by immunoblot. […]"}, "A375 and HCT116 cells": {"test_system": "A375 and HCT116 cells", "test": "Cell viability by SRB assay of A375 and HCT116 cells treated with Ezh2 inhibitors without or with EOAI", "format": "cell-based", "conditions": "48 hr; A375: GSK343 10 μM, UNC1999 5 μM, 0.5 μM EOAI; HCT116: GSK343 10 μM, UNC1999 10 μM, 1 μM EOAI", "procedure": "FIGS. 20A-20B: (A) A375 cells were treated with GSK343 10 μM, UNC1999 5μM without or with 0.5 μM EOAI3402143 (EOAI) for 48 hr before measuring cell viability by SRB assay. Data are presented as relative to the R-WT cells without drug treatment (n=3 per group, data represent mean±SEM). (B) HCT116 cells were treated with GSK343 10 μM, UNC1999 10 μM without or with 1 μM EOAI3402143 (EOAI) for 48 hr before measuring cell viability by SRB assay. Data are presented as relative to the R-WT cells without drug treatment (n=3 per group, data represent mean±SEM).\nCell Proliferation Assay. Cells were seeded in 96-well plates. The cell proliferation was assessed by SRB assay (Vichai and Kirtikara, 2006) at various time points. Briefly, cells after treatments were fixed with 10% TCA then stained with 0.05% SRB. After wash, bound SRB was solubilized with 10 mM Trizma base and measured at 515 nm."}, "PDAC cell lines": {"test_system": "PDAC cell lines", "test": "Inhibition rates of JQ1 in a panel of 9 PDAC cell lines", "format": "cell-based", "description": "(§3) FIGS. 15A-15D: The results of the inhibition rates of JQ1 in different PDAC cell lines. (B) The correlation analysis of gene expression of BRD family genes and METTL3 in PDAC from TGCA and GTEx database. (C) The polyA RNA m6A level changes upon JQ1 treatment compared to the DMSO control in different PDAC cell lines. (D) The cell viability changes with JQ1 treatment with a series concentrations in the JQ1-insensitive cells upon the knockdown of METTL3 and the JQ1-sensitive cells upon the overexpression of METTL3 compared to control."}, "[3]": {"test_system": "polyA RNA m^6A in JQ1-sensitive cells (Mia cell)", "test": "polyA RNA m^6A level upon JQ1 treatment in JQ1-sensitive PDAC cells", "format": "cell-based", "description": "as §3, with “control. […]” for “control.”\n(§4) LC-MS/MS quantification of m^6A in poly(A) RNA. mRNA was extracted from the total RNA using 2 rounds of the Dynabeads mRNA purification kit. […] The nucleosides were quantified by using the nucleoside-to-base ion mass transitions of 282 to 150 (m^6A) and 268 to 136 (A). Quantification was carried out by comparison with a standard curve obtained from pure nucleoside. The ratio of m^6A to A was calculated based on the calibrated concentrations (Liu et al., 2018)."}, "[4]": {"test_system": "polyA RNA m^6A in JQ1-insensitive cells (8902 cell line)", "test": "polyA RNA m^6A level upon JQ1 treatment in JQ1-insensitive PDAC cells", "format": "cell-based", "description": "as §3, with “control. […]” for “control.”\nas §4"}, "[5]": {"test_system": "JQ1-insensitive PDAC cells", "test": "Cell viability with JQ1 in JQ1-insensitive cells upon knockdown of METTL3", "format": "cell-based", "conditions": "series of JQ1 concentrations", "description": "as §3"}, "JQ1-sensitive PDAC cells": {"test_system": "JQ1-sensitive PDAC cells", "test": "Cell viability with JQ1 in JQ1-sensitive cells upon overexpression of METTL3", "format": "cell-based", "conditions": "series of JQ1 concentrations", "description": "as §3"}, "METTL3 in 8902 cell line": {"test_system": "METTL3 in 8902 cell line", "test": "METTL3 RNA and protein level changes with JQ1 treatment in JQ1-insensitive cells", "format": "cell-based", "conditions": "8902 cell line (JQ1-insensitive)", "description": "(§5) FIGS. 16A-16B: (A) The protein level changes of METTL3 with JQ1 treatment in the JQ1-insensitive cells compared to DMSO control (left); the RNA level changes of METTL3 the JQ1-insensitive cells with JQ1 treatment compared to DMSO control (mid); the polyA RNA m6A level changes in JQ1-insensitive cells among the knockdown control and DMSO control samples, the knockdown control and JQ1 treatment samples, the METTL3 knockdown and DMSO control, and the METTL3 knockdown and JQ1 treatment samples (right). (B) The protein level changes of METTL3 with JQ1 treatment in the JQ1-sensitive cells compared to DMSO control (left); the RNA level changes of METTL3 the JQ1-sensitive cells with JQ1 treatment compared to DMSO control (mid); the polyA RNA m6A level changes in JQ1-sensitive cells among the knockdown control and DMSO control samples, the knockdown control and JQ1 treatment samples, the METTL3 knockdown and DMSO control, and the METTL3 knockdown and JQ1 treatment samples (right)."}, "METTL3 in Mia cell": {"test_system": "METTL3 in Mia cell", "test": "METTL3 RNA and protein level changes with JQ1 treatment in JQ1-sensitive cells", "format": "cell-based", "conditions": "dose-dependent", "description": "as §5"}}, "data": [{"smiles": "CCCC(NC(=O)/C(C#N)=C/c1nc(Cl)ccc1Cl)c1ccc(OCCN2CCOCC2)cc1", "note": "(centres unmarked) [EOAI3402143]", "values": [{"measurement": "ubiquitination of METTL3", "setting": "ubiquitination of METTL3", "result": "increased"}, {"measurement": "METTL3 protein level", "setting": "[1]", "result": "decreased"}, {"measurement": "effect of knockdown of METTL3 on sensitivity of cells to the USP5 inhibitor", "setting": "[2]", "result": "sensitized"}, {"measurement": "effect of overexpression of METTL3 on sensitivity of cells to the USP5 inhibitor", "setting": "[2]", "result": "attenuated"}]}, {"smiles": "CCCc1cc(C)[nH]c(=O)c1CNC(=O)c1cc(-c2ccnc(N3CCN(C)CC3)c2)cc2c1cnn2C(C)C", "note": "[GSK343]", "values": [{"measurement": "combination effect on cell viability with the USP5 inhibitor EOAI", "setting": "A375 and HCT116 cells", "result": "synergism"}]}, {"smiles": "Cc1sc2c(c1C)C(c1ccc(Cl)cc1)=N[C@@H](CC(=O)OC(C)(C)C)c1nnc(C)n1-2", "note": "[JQ1]", "values": [{"measurement": "inhibition effect (anticancer activity)", "setting": "PDAC cell lines", "result": "varies among different cell types"}, {"measurement": "polyA RNA m^6A", "setting": "[3]; JQ1-sensitive PDAC cells, versus DMSO control", "result": "dramatically decreased"}, {"measurement": "polyA RNA m^6A level", "setting": "[3]; Mia cell (JQ1-sensitive), dose-dependent", "result": "dramatic decreases"}, {"measurement": "polyA RNA m^6A, JQ1 treatment after METTL3 knockdown", "setting": "[4]; 8902 cell line (JQ1-insensitive)", "result": "further reduced"}, {"measurement": "polyA RNA m^6A changes", "setting": "[4]; JQ1-insensitive PDAC cells, versus DMSO control", "result": "moderate to negligible"}, {"measurement": "viability of JQ1-insensitive cells, knockdown of METTL3 together with JQ1 treatment", "setting": "[5]", "result": "synergistically reduce"}, {"measurement": "effect of JQ1 treatment upon overexpression of METTL3 in JQ1-sensitive cell", "setting": "JQ1-sensitive PDAC cells", "result": "inhibits"}, {"measurement": "METTL3 RNA level", "setting": "METTL3 in 8902 cell line", "result": "moderate effect"}, {"measurement": "METTL3 protein level", "setting": "METTL3 in 8902 cell line", "result": "less of an effect"}, {"measurement": "METTL3 RNA level", "setting": "METTL3 in Mia cell", "result": "dramatic decreases"}, {"measurement": "METTL3 protein level", "setting": "METTL3 in Mia cell", "result": "dramatic decreases"}]}, {"smiles": "CCCc1cc(C)[nH]c(=O)c1CNC(=O)c1cc(-c2ccc(N3CCN(C(C)C)CC3)nc2)cc2c1cnn2C(C)C", "note": "[UNC199]", "values": [{"measurement": "combination effect on cell viability with the USP5 inhibitor EOAI", "setting": "A375 and HCT116 cells", "result": "synergism"}]}]}
